Test results as given in patent publication US20160000803A1, “PHARMACEUTICAL COMPOSITION FOR TRANSMUCOSAL ADMINISTRATION OF BENZODIAZEPINES” (EASTGATE PHARMACEUTICALS INC., priority 2013, published 2016).
Like-named read-outs stand apart in the source and are kept apart here.

Key:
seizures = conditions: intranasal, human patients; cited from earlier work
[1] = Experimental: After combining of pre-weighed amounts of components they were gently triturated at room temperature (20-22° C.) using a stainless steel spatula until liquid phase is formed.
PTZ induced seizures = assay: Timed intravenous PTZ infusion test (ivPTZ); format: in vivo, mice
Excerpt: For investigation of anti-seizure activity of invented formulations, a timed intravenous PTZ infusion test was employed.
The technique of timed i.v. PTZ (pentylenetetrazole) infusion test (ivPTZ) is a simple, reproducible and fast method for assessment of onset, peak, duration and potency of various anticonvulsants and proconvulsants in animals. This test provides an extremely sensitive parametric method for assessing seizure threshold in individual animals and a quantifiable endpoint can be obtained with a minimal number of animals. Different seizure types can be chosen as endpoint in this test. Usually, the first seizure occurring during the PTZ infusion is a myoclonic twitch, followed by clonic and, later, tonic seizures.
This method offers many advantages over the more widely used classical subcutaneous PTZ (scPTZ) test. Since with ivPTZ, test effects based on different endpoints are measured in individual animals, the number of animals required for a proper evaluation is much lower than would be needed for standard scPTZ test. […]
During the infusion, mice are observed for the onset of different types of seizures. The time latencies from the start of infusion to the appearance of the first clonus (characterized by rapid involuntary rhythmic contraction and relaxation of limbs), lasting longer than 5 seconds, are recorded. […]

Row | Structure (SMILES) | onset of action (seizures) | increase of solubility ([1]; MCT oil + 5% Menthol by weight vs pure MCT oil) | increase of solubility ([1]; MCT with 8% Menthol vs pure MCT oil) | PTZ dose threshold (PTZ induced seizures; intraperitoneal 2.5 mg/kg, 5 minutes time point, infusion 0.3 ml/min, PTZ 10 mg/ml) | time of maximal protection (PTZ induced seizures; parenterally administered)
1 | Cc1ncc2n1-c1ccc(Cl)cc1C(c1ccccc1F)=NC2 [Midazolam] | approximately 10 minutes |  |  |  | 
2 | O=C1Nc2ccc(Cl)cc2C(c2ccccc2Cl)=NC1O (centres unmarked) [Lorazepam] |  | 28% | ~60% | 100 to 120 mg/kg | approximately 5 minutes
